Results reported in ChEMBL document CHEMBL1156251, “Structure--activity relationships of polymyxin antibiotics” (J Med Chem, 2010).
In brackets after ≈: the same amount, converted by molar mass. Where a SMILES comes first, the peptide text is derived from it. Bridges are numbered along the chain shown (N, C = ends). [ ]: non-standard residue; d: D form. The star is where a group is joined. Heptanoyl(6-Me) = CC(C)CCCCC(=O)*; Octanoyl(6-Me) = CCC(C)CCCCC(=O)*; Dab = NCC[C@H](N)C(=O)O; Ava = NCCCCC(=O)O

How the values were obtained:
Escherichia coli = assay: Antimicrobial activity against Escherichia coli; type: functional
Salmonella enterica = assay: Antimicrobial activity against Salmonella enterica; type: functional
Pseudomonas aeruginosa = assay: Antimicrobial activity against Pseudomonas aeruginosa; type: functional, organism-based

| MIC (Escherichia coli) | IC50 (Pseudomonas aeruginosa) | Compound | other results |
| --- | --- | --- | --- |
| 0.8 µg/mL |  | CCC(C)CCCCC(=O)N[C@@H](CCN)C(=O)N[C@H](C(=O)N[C@@H](CO)C(=O)N[C@H]1CCNC(=O)[C@H]([C@@H](C)O)NC(=O)[C@H](CCN)NC(=O)[C@H](CCN)NC(=O)[C@H](CC(C)C)NC(=O)[C@@H](CC(C)C)NC(=O)[C@H](CCN)NC1=O)[C@@H](C)O (some centres not stated) |  |
| 2 µM |  | CC(C)C[C@@H]1NC(=O)[C@@H](CC(C)C)NC(=O)[C@H](CCN)NC(=O)[C@@H](NC(=O)[C@H](CCN)NC(=O)[C@@H](NC(=O)[C@H](CCN)NC(=O)CCCC2CCCCC2)[C@@H](C)O)CCNC(=O)[C@H]([C@@H](C)O)NC(=O)[C@H](CCN)NC(=O)[C@H](CCN)NC1=O | MIC (Salmonella enterica): 1 µM (≈ 1.18 µg/mL); MIC (Pseudomonas aeruginosa): 1 µM (≈ 1.18 µg/mL) |
| 2 µM |  | CC(C)C[C@@H]1NC(=O)[C@@H](Cc2ccccc2)NC(=O)[C@H](CCN)NC(=O)[C@@H](NC(=O)[C@H](CCN)NC(=O)[C@@H](NC(=O)[C@H](CCN)NC(=O)CCCc2cc3ccc4cccc5ccc(c2)c3c45)[C@@H](C)O)CCNC(=O)[C@H]([C@@H](C)O)NC(=O)[C@H](CCN)NC(=O)[C@H](CCN)NC1=O | MIC (Salmonella enterica): 2 µM (≈ 2.67 µg/mL); MIC (Pseudomonas aeruginosa): 2 µM (≈ 2.67 µg/mL) |
| 2 µM |  | CC(C)C[C@@H]1NC(=O)[C@@H](CC(C)C)NC(=O)[C@H](CCN)NC(=O)[C@@H](NC(=O)[C@H](CCN)NC(=O)[C@@H](NC(=O)[C@H](CCN)NC(=O)CCCc2cc3ccc4cccc5ccc(c2)c3c45)[C@@H](C)O)CCNC(=O)[C@H]([C@@H](C)O)NC(=O)[C@H](CCN)NC(=O)[C@H](CCN)NC1=O | MIC (Salmonella enterica): 2 µM (≈ 2.6 µg/mL); MIC (Pseudomonas aeruginosa): 1 µM (≈ 1.3 µg/mL) |
| 11 µg/mL |  | CCCCC(=O)N[C@@H](CCN)C(=O)N[C@@H](C(=O)N[C@@H](CCN)C(=O)N[C@H]1CCNC(=O)[C@@H]([C@@H](C)O)NC(=O)[C@H](CCN)NC(=O)[C@H](CCN)NC(=O)[C@H](CC(C)C)NC(=O)[C@@H](Cc2ccccc2)NC(=O)[C@H](CCN)NC1=O)[C@@H](C)O |  |
| 0.2 µg/mL |  | CCC(C)CCCCC(=O)N[C@@H](CCCCN)C(=O)N[C@H](C(=O)N[C@@H](CCCCN)C(=O)N[C@H]1CCNC(=O)[C@H]([C@@H](C)O)NC(=O)[C@H](CCCCN)NC(=O)[C@H](CCCCN)NC(=O)[C@H](CC(C)C)NC(=O)[C@@H](Cc2ccccc2)NC(=O)[C@H](CCCCN)NC1=O)[C@@H](C)O (some centres not stated) |  |
| 0.4 µg/mL |  | CCC(C)CCCCC(=O)N[C@@H](CCN)C(=O)N[C@H](C(=O)N[C@@H](CCN)C(=O)N[C@H]1CCNC(=O)[C@H]([C@@H](C)O)NC(=O)[C@H](CCN)NC(=O)[C@H](CCN)NC(=O)[C@H]([C@@H](C)CC)NC(=O)[C@@H](CC(C)C)NC(=O)[C@H](CCN)NC1=O)[C@@H](C)O (some centres not stated) |  |
|  | 7.6 µg/mL (≈ 6.17 µM) | CCC(C)CCCCC(=O)N[C@@H](CCNC=O)C(=O)N[C@H](C(=O)N[C@@H](CCN)C(=O)N[C@H]1CCNC(=O)[C@H]([C@@H](C)O)NC(=O)[C@H](CCN)NC(=O)[C@H](CCN)NC(=O)[C@H](CC(C)C)NC(=O)[C@@H](Cc2ccccc2)NC(=O)[C@H](CCN)NC1=O)[C@@H](C)O (some centres not stated) |  |
|  | 4.2 µg/mL (≈ 3.33 µM) | CCC(C)CCCCC(=O)N[C@@H](CCNC=O)C(=O)N[C@H](C(=O)N[C@@H](CCNC=O)C(=O)N[C@H]1CCNC(=O)[C@H]([C@@H](C)O)NC(=O)[C@H](CCN)NC(=O)[C@H](CCN)NC(=O)[C@H](CC(C)C)NC(=O)[C@@H](Cc2ccccc2)NC(=O)[C@H](CCN)NC1=O)[C@@H](C)O (some centres not stated) |  |
|  | 6.1 µg/mL (≈ 4.74 µM) | CCC(C)CCCCC(=O)N[C@@H](CCNC=O)C(=O)N[C@H](C(=O)N[C@@H](CCNC=O)C(=O)N[C@H]1CCNC(=O)[C@H]([C@@H](C)O)NC(=O)[C@H](CCN)NC(=O)[C@H](CCNC=O)NC(=O)[C@H](CC(C)C)NC(=O)[C@@H](Cc2ccccc2)NC(=O)[C@H](CCN)NC1=O)[C@@H](C)O (some centres not stated) |  |
|  | 42 µg/mL (≈ 31.9 µM) | CCC(C)CCCCC(=O)N[C@@H](CCNC=O)C(=O)N[C@H](C(=O)N[C@@H](CCNC=O)C(=O)N[C@H]1CCNC(=O)[C@H]([C@@H](C)O)NC(=O)[C@H](CCNC=O)NC(=O)[C@H](CCNC=O)NC(=O)[C@H](CC(C)C)NC(=O)[C@@H](Cc2ccccc2)NC(=O)[C@H](CCN)NC1=O)[C@@H](C)O (some centres not stated) |  |
|  | 60 µg/mL (≈ 44.7 µM) | CCC(C)CCCCC(=O)N[C@@H](CCNC=O)C(=O)N[C@H](C(=O)N[C@@H](CCNC=O)C(=O)N[C@H]1CCNC(=O)[C@H]([C@@H](C)O)NC(=O)[C@H](CCNC=O)NC(=O)[C@H](CCNC=O)NC(=O)[C@H](CC(C)C)NC(=O)[C@@H](Cc2ccccc2)NC(=O)[C@H](CCNC=O)NC1=O)[C@@H](C)O (some centres not stated) |  |
|  | 80 µg/mL (≈ 58.2 µM) | CCC(C)CCCCC(=O)N[C@@H](CCNC(N)=O)C(=O)N[C@H](C(=O)N[C@@H](CCNC(N)=O)C(=O)N[C@H]1CCNC(=O)[C@H]([C@@H](C)O)NC(=O)[C@H](CCNC(N)=O)NC(=O)[C@H](CCNC(N)=O)NC(=O)[C@H](CC(C)C)NC(=O)[C@@H](Cc2ccccc2)NC(=O)[C@H](CCN)NC1=O)[C@@H](C)O (some centres not stated) |  |
| 4 µM |  | CCCC1CCC(C(=O)N[C@@H](CCN)C(=O)N[C@H](C(=O)N[C@@H](CCN)C(=O)N[C@H]2CCNC(=O)[C@H]([C@@H](C)O)NC(=O)[C@H](CCN)NC(=O)[C@H](CCN)NC(=O)[C@H](CC(C)C)NC(=O)[C@@H](Cc3ccccc3)NC(=O)[C@H](CCN)NC2=O)[C@@H](C)O)CC1 (some centres not stated) | MIC (Salmonella enterica): 4 µM (≈ 4.86 µg/mL); MIC (Pseudomonas aeruginosa): 2 µM (≈ 2.43 µg/mL) |
| 8 µM |  | CCCC1CCC(C(=O)N[C@@H](CCN)C(=O)N[C@H](C(=O)N[C@@H](CCN)C(=O)N[C@H]2CCNC(=O)[C@H]([C@@H](C)O)NC(=O)[C@H](CCN)NC(=O)[C@H](CCN)NC(=O)[C@H](CC(C)C)NC(=O)[C@@H](CC(C)C)NC(=O)[C@H](CCN)NC2=O)[C@@H](C)O)CC1 (some centres not stated) | MIC (Salmonella enterica): 8 µM (≈ 9.45 µg/mL); MIC (Pseudomonas aeruginosa): 2 µM (≈ 2.36 µg/mL) |
| 50 µg/mL |  | CCC(C)CCCCCOC(=O)[C@H](CCCCN)NC(=O)C(NC(=O)[C@H](CCCCN)NC(=O)[C@H](CCCCN)NC(=O)[C@@H](NC(=O)[C@H](CCCCN)NC(=O)[C@@H](CCCCN)NC(=O)[C@@H](N)CC(C)C)[C@@H](C)O)[C@@H](C)O (single isomer, unassigned) |  |
| 100 µg/mL |  | CCC(C)CCCCCOC(=O)[C@H](CCCCN)NC(=O)C(NC(=O)[C@H](CCCCN)NC(=O)[C@H](CCCCN)NC(=O)[C@@H](NC(=O)[C@H](CCCCN)NC(=O)[C@@H](CCCCN)NC(=O)[C@H](CC(C)C)NC(=O)[C@@H](CCCCN)NC(=O)[C@@H](N)CC(C)C)[C@@H](C)O)[C@@H](C)O (single isomer, unassigned) |  |
| 500 µg/mL |  | CCC(C)CCCCC(=O)N[C@@H](CCN)C(=O)N[C@H](C(=O)N[C@@H](CCN)C(=O)N[C@H]1CCNC(=O)[C@H]([C@@H](C)O)NC(=O)[C@H](CCN)NC(=O)[C@H](CCN)NC(=O)CCCCNC(=O)[C@H](CCN)NC1=O)[C@@H](C)O (some centres not stated) ({Octanoyl(6-Me)}-[Dab]T[Dab][Dab][Dab][Ava][Dab][Dab]T; lactam 4-C) |  |
|  | 73 µg/mL (≈ 39.1 µM) | CCC(C)CCCCC(=O)N[C@@H](CCNc1ccc([N+](=O)[O-])cc1[N+](=O)[O-])C(=O)N[C@@H](C(=O)N[C@@H](CCNc1ccc([N+](=O)[O-])cc1[N+](=O)[O-])C(=O)N[C@H]1CCNC(=O)[C@@H]([C@@H](C)O)NC(=O)[C@H](CCNc2ccc([N+](=O)[O-])cc2[N+](=O)[O-])NC(=O)[C@H](CCNc2ccc([N+](=O)[O-])cc2[N+](=O)[O-])NC(=O)[C@H](CC(C)C)NC(=O)[C@@H](Cc2ccccc2)NC(=O)[C@H](CCN)NC1=O)[C@@H](C)O (some centres not stated) [2,4-DINITROPHENYL POLYMYXIN B] |  |
| 23 µg/mL |  | CCCC(=O)N[C@@H](CCN)C(=O)N[C@@H](C(=O)N[C@@H](CCN)C(=O)N[C@H]1CCNC(=O)[C@@H]([C@@H](C)O)NC(=O)[C@H](CCN)NC(=O)[C@H](CCN)NC(=O)[C@H](CC(C)C)NC(=O)[C@@H](Cc2ccccc2)NC(=O)[C@H](CCN)NC1=O)[C@@H](C)O [BUTANOYL FATTY ACYL POLYMYXIN B] |  |
| 1.6 µg/mL |  | CC(C)CCCCC(=O)N[C@@H](CCN)C(=O)N[C@H](C(=O)N[C@@H](CCN)C(=O)N[C@H]1CCNC(=O)[C@H]([C@@H](C)O)NC(=O)[C@H](CCN)NC(=O)[C@H](CCN)NC(=O)[C@H](CC(C)C)NC(=O)[C@@H](CC(C)C)NC(=O)[C@H](CCN)NC1=O)[C@@H](C)O [COLISTIN B] ({Heptanoyl(6-Me)}-[Dab]T[Dab][Dab][Dab][dL]L[Dab][Dab]T; lactam 4-C) |  |
|  | 70 µg/mL (≈ 58.4 µM) | CCC(C)CCCCC(=O)N[C@@H](CC=O)C(=O)N[C@H](C(=O)N[C@@H](CC=O)C(=O)N[C@H]1CCNC(=O)[C@H]([C@@H](C)O)NC(=O)[C@H](CC=O)NC(=O)[C@H](CC=O)NC(=O)[C@H](CC(C)C)NC(=O)[C@@H](Cc2ccccc2)NC(=O)[C@H](CC=O)NC1=O)[C@@H](C)O (some centres not stated) [Desamino Polymyxin B] |  |
| 0.7 µg/mL |  | CCCCCC(=O)N[C@@H](CCN)C(=O)N[C@@H](C(=O)N[C@@H](CCN)C(=O)N[C@H]1CCNC(=O)[C@@H]([C@@H](C)O)NC(=O)[C@H](CCN)NC(=O)[C@H](CCN)NC(=O)[C@H](CC(C)C)NC(=O)[C@@H](Cc2ccccc2)NC(=O)[C@H](CCN)NC1=O)[C@@H](C)O [HEXANOYL FATTY ACYL POLYMYXIN B] |  |
|  | 10.7 µg/mL (≈ 5.03 µM) | CCC(C)CCCCC(=O)N[C@@H](CCNCc1c(COP(=O)(O)O)cnc(C)c1O)C(=O)N[C@@H](C(=O)N[C@@H](CCNCc1c(COP(=O)(O)O)cnc(C)c1O)C(=O)N[C@H]1CCNC(=O)[C@@H]([C@@H](C)O)NC(=O)[C@H](CCNCc2c(COP(=O)(O)O)cnc(C)c2O)NC(=O)[C@H](CCNCc2c(COP(=O)(O)O)cnc(C)c2O)NC(=O)[C@H](CC(C)C)NC(=O)[C@@H](Cc2ccccc2)NC(=O)[C@H](CCN)NC1=O)[C@@H](C)O (some centres not stated) [PYRIDOXAL POLYMYXIN B] |  |
|  | 68 µg/mL (≈ 35.3 µM) | CCC(C)CCCCC(=O)N[C@@H](CCNc1cc(N)c([N+](=O)[O-])cc1[N+](=O)[O-])C(=O)N[C@@H](C(=O)N[C@@H](CCNc1cc(N)c([N+](=O)[O-])cc1[N+](=O)[O-])C(=O)N[C@H]1CCNC(=O)[C@@H]([C@@H](C)O)NC(=O)[C@H](CCNc2cc(N)c([N+](=O)[O-])cc2[N+](=O)[O-])NC(=O)[C@H](CCNc2cc(N)c([N+](=O)[O-])cc2[N+](=O)[O-])NC(=O)[C@H](CC(C)C)NC(=O)[C@@H](Cc2ccccc2)NC(=O)[C@H](CCN)NC1=O)[C@@H](C)O (some centres not stated) [TETRA 5-AMINO-2,4-DINITROPHENYL POLYMYXIN B] |  |
|  | 10.2 µg/mL (≈ 5.74 µM) | CCC(C)CCCCC(=O)N[C@@H](CCNC(=O)n1ccc2ccccc21)C(=O)N[C@@H](C(=O)N[C@@H](CCNC(=O)n1ccc2ccccc21)C(=O)N[C@H]1CCNC(=O)[C@@H]([C@@H](C)O)NC(=O)[C@H](CCNC(=O)n2ccc3ccccc32)NC(=O)[C@H](CCNC(=O)n2ccc3ccccc32)NC(=O)[C@H](CC(C)C)NC(=O)[C@@H](Cc2ccccc2)NC(=O)[C@H](CCN)NC1=O)[C@@H](C)O (some centres not stated) [TETRA INDOLE ALDEHYDE POLYMYXIN B] |  |
| 0.8 µg/mL |  | COLISTIN |  |
